Results from patent publication US20220249415A1, “COMPOSITION OF AZELAIC ACID HAVING ADIPOSE TRIGLYCERIDE HYDROLYSIS EFFECT” (Korea University Research and Business Foundation, priority 2018, published 2022).

Experiments:
[1] = reported results of a study; formed in the body; cited from earlier work
[2] = tested on: 3T3-L1 adipocytes in which the Olfr544 gene was knocked-down; test: Lipolysis (glycerol) in adipocytes in which Olfr544 gene was knocked-down; type: cell-based, mouse; conditions: Olfr544 shRNA transfected adipocytes treated with azelaic acid for 2 hours
Procedure: After the Olfr544 gene was knocked-down in the mouse adipocytes, the adipocytes were treated with azelaic acid, and whether or not a triglyceride hydrolysis effect of azelaic acid was maintained was confirmed.

HepG2 cells [3] = test: qPCR of anti-obesity gene in HepG2 cells, with OR2K2 knock-down; type: cell-based, human
Procedure: In-vitro equivalence confirmation: HepG2 cells, which are a human liver tissue cell line, and hAMSC cells, which are a human adipocyte line, were treated with azelaic acid and the anti-obesity gene was measured through a qPCR method.

Olfr544 = Olfr544 (Mus musculus, UniProt E9PX47); test: CRE-luciferase reporter gene assay in Hana3A cell line transfected with Olfr544 expression vector; type: cell-based
Sequence of Olfr544 (E9PX47 entry or part of it): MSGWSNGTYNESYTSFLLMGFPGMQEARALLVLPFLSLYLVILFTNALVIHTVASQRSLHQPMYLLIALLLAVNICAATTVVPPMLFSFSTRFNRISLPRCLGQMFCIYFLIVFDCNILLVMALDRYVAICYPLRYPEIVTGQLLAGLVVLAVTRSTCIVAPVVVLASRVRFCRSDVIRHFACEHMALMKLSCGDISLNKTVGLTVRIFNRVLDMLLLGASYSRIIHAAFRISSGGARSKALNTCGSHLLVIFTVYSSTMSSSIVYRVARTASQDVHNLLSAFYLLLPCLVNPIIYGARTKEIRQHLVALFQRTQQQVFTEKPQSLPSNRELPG
Procedure: In order to evaluate an activity of azelaic acid as an Olfr544 ligand in vitro assay, reporter gene assay was performed. Generally, a degree of gene expression of the olfactory receptor (OR) in tissue cells was low and a degree of protein expression also was low, such that research into the olfactory receptor was difficult. In order to solve this problem, a Hana3A cell line was supplied from a team led by professor Hiroaki Matsunami of Duke University and used in an experiment (Zhuang H., et al., Nat. Protocol, 3:1402-1413, 2008).
The reporter gene assay was performed as follows. First, after an Olfr544 expression vector and a cAMP response element (CRE)-Luciferase reporter vector were transfected into the Hana3A cell line, the transfected Hana3A cell line was treated with azelaic acid for 18 hours. Then, a luciferase activity was measured using a Firefly luciferase (FL) assay kit, and a dose response curve (DRC) was drawn based on the measured luciferase activity, thereby calculating a 50% effective concentration (EC50) corresponding to an index for determining an effect as a ligand (agonist).

HepG2 cells [4] = test: Treatment of human liver tissue cell line HepG2 with azelaic acid; type: cell-based; conditions: azelaic acid 50 μM
OR2K2 = target: T1, OR2K2 (Homo sapiens, UniProt Q8NGT1); test: siRNA knock-down of OR2K2 in hAMSC cells, lipolysis; type: cell-based; conditions: treated with azelaic acid
T1 construct: endogenous in cells; host or cells: HepG2
T1 sequence (Q8NGT1 1-316): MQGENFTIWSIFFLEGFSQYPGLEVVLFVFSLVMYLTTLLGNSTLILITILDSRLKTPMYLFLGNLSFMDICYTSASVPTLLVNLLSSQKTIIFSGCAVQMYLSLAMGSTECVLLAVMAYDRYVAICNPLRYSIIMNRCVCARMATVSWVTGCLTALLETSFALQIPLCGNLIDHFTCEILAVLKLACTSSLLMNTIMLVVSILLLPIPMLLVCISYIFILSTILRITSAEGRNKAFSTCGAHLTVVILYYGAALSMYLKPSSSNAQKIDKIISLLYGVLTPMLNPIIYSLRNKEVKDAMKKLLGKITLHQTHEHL
From the text: (§1) The gene expression of OR1E1, OR1K1, OR2K2, OR2S2, OR13C5, and OR51E2, corresponding to the top 6 receptors among 10 human olfactory receptors selected to be expressed in both adipose tissue and liver tissue while interacting with azelaic acid, was knocked down with siRNA in human-derived liver cell and adipocyte lines, namely HepG2 cells and hAMSC cells, respectively. Here, siRNAs that were used were OR1E2 siRNA (sc-93932), OR1K2 (sc-92810), OR2K2 (sc-92852), OR2S2 (sc-92505), OR13C5 (sc-92899), and OR51E2 (sc-76265), purchased from Santa Cruz Biotechnology Inc. (Dallas, Tx USA).
(§2) After knock-down treatment, the cell lines were treated with azelaic acid, and triglyceride hydrolysis and fatty acid oxidation-related gene expression in HepG2 cells as a human-derived liver cell line and hAMSC cells as a human-derived adipocyte line were measured.

3T3-L1 adipocytes = test: Intracellular calcium assay (Fluo-4 Direct) in 3T3-L1 adipocytes; type: cell-based, mouse
Procedure: Therefore, changes in concentrations of cAMP, IP-one (metabolite of IP3), and calcium, which are second messengers by azelaic acid corresponding to the Olfr544 ligand, in 3T3-L1 adipocytes were measured. Since IP3 has low stability to thereby be easily decomposed to IP-one, an amount of intracellular IP-One (metabolite of IP3) was quantified instead of IP3. The concentration of intracellular calcium was measured using a Fluo-4 Direct™ Calcium Assay Kit (Invitrogen, California, U.S.) containing a fluorescent dye for labeling calcium ions. The cultured 3T3-L1 adipocytes were obtained and subjected to centrifugation, and then only pellets were diluted in a Fluo-4 Direct™ calcium assay buffer solution contained in the kit at a concentration of 2.5×10^6 cells/mL. After the resultant was seeded in a 96-well plate and cultured at 37° C. under 5% CO2 conditions for 60 minutes, 50 μL of a 2×Fluo-4 Direct™ calcium reagent loading solution was seeded in the 96-well plate and cultured at 37° C. under 5% CO2 conditions for 30 minutes. Then, fluorescence was measured at excitation and emission wavelengths of 494 nm and 516 nm.

[5] = tested on: 3T3-L1 adipocytes in which the Olfr544 gene was knocked-down; test: cAMP, PKA activity and HSL phosphorylation in adipocytes in which Olfr544 gene was knocked-down; type: cell-based, mouse; conditions: Olfr544 shRNA transfected adipocytes treated with azelaic acid for 2 hours
From the text: After the Olfr544 gene was knocked-down in the mouse adipocytes, cAMP assay was confirmed by the method described in Example 4, PKA activity was confirmed by the method described in Example 5, and phosphorylation of HSL protein was confirmed by the method described in Example 6.

OR2S2 = target: T2, OR2S2 (Homo sapiens, UniProt Q9NQN1); test: siRNA knock-down of OR2S2 in HepG2 cells, fatty acid oxidation-related gene expression; type: cell-based; conditions: HepG2 cells during knock-down of OR2S2
T2 construct: endogenous in cells; host or cells: HepG2
T2 sequence (Q9NQN1 1-319): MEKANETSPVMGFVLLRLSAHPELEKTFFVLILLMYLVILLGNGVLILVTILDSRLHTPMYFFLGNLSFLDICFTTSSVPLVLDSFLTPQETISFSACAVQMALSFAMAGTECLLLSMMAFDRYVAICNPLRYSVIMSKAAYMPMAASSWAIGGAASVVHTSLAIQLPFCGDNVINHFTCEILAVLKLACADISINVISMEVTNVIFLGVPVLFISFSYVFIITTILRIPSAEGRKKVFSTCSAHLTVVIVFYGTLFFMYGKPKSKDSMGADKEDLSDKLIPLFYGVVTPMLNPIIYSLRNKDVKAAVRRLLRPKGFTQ
From the text: as §1, §2

## O=C(O)CCCCCCCC(=O)O [azelaic acid, nonanedioic acid]
[1]
  concentration of azelaic acid in a human body: 10 to 50 µM
[2]
  concentration of glycerol: no change
HepG2 cells [3]; human liver tissue cell line (HepG2)
  effect on gene expression when the OR2K2 gene was knocked down: disappear
HepG2 cells [3]; liver tissue cells (HepG2) treated with azelaic acid
  fatty acid oxidation gene expression (qPCR): increased
Olfr544; Olfr544 + CRE-Luciferase reporter in Hana3A cells, 18 hours
  EC50: 29.7 µM
Olfr544; concentration range of 1 to 1000 μM
  Olfr544 activity: concentration-dependently increased
HepG2 cells [4]; HepG2 cells (lipid-loaded)
  triglyceride concentration: significantly decreased
HepG2 cells [4]; HepG2 cells
  CREB phosphorylation (p-CREB): increased
  cAMP-PKA signaling pathway: activated
  expression of fatty acid oxidation-related gene PPAR-α: increased
  fatty acid oxidation (FA oxidation): increased
OR2K2
  lipolytic effect, knock-down group compared to control group: statistically significantly decreased
3T3-L1 adipocytes
  concentration of intracellular calcium: did not affect
[5]
  cAMP-PKA-HSL signaling pathway: all inactivated
OR2S2
  expression of fatty acid oxidation-related genes (PPARa, CTP1, Acox2) upon treatment with azelaic acid: did not change
